Measurements taken from EP0271099A2, “Substituted aminopropionic acid amides, process for their preparation, agents containing them and their use as well as the intermediates formed during the preparation” (HOECHST AKTIENGESELLSCHAFT, priority 1986, dated 1988).

Tested on: ECS-Amnesie
Assay: Inhibitory (passive) avoidance test, reversal of amnesia induced by electroconvulsive shock
Format: in vivo, Mäusen
Details: Mus musculus, po, read-out: Inhibitory avoidance MED mg/kg p.o. ECS-Amnesie
Excerpt: Die Verbindungen der Formel I besitzen wertvolle pharmakologische Eigenschaften, insbesondere nootrope. Die nootrope Wirkung der erfindungsgemäßen Verbindungen wurde an Mäusen, die ein Köpergewicht von 20-25 g besaßen, im inhibitory (passive) avoidance test geprüft. Eine modifizierte Form der von J. Kopp, Z. Bodanecky und M.E. Jarvik beschriebenen Testmethode wurde von J. Bures, O. Buresova und J. Huston im "Techniques and Basic Experiments for the Study of Brain and Behavior", Elsevier Scientific Publishers, Amsterdam 1983, beschrieben.
Entsprechend diesen Literaturangaben wird eine Substanz dann als nootrop wirksam bezeichnet, wenn sie bei den Versuchstieren die mittels eines elektroconvulsiven Schocks erzeugte Amnesie (ECS-Amnesie) aufzuheben vermag.
Die Versuche wurden nach modifizierten Testmethoden mit den erfindungsgemäßen Verbindungen durchgeführt. Als Vergleichsverbindung diente das bekannte Nootropikum 2-Oxo-1-pyrrolidinylessigsäureamid (Piracetam). Die deutliche Überlegenheit der erfindungsgemäßen Verbindungen über die Vergleichssubstanz zeigte sich darin, daß der amnestische Effekt bereits mit einer MED (minimal effective dosis) von 0,1-10 mg/kg p.o. aufzuheben ist. Die Vergleichssubstanz hat eine MED von ca. 500-1000 mg/kg p.o..

Question: Which minimal effective dose does the source give for NC(=O)CN1CCCC1=O [Piracetam, 2-Oxo-1-pyrrolidinylessigsäureamid, reference compound] here?
Answer: Its minimal effective dose is 1000 mg/kg.

Question: With O=C(O)CCc1ccc(NC(=O)CCN2CC=C(c3cccc(Cl)c3)CC2)cc1 [Beispiel 49, 3-{4-[3-(4-(3-Chlorphenyl)-1,2,5,6-tetrahydropyridino)-propionamido]-phenyl}-propionsäure] as the molecule, how does the minimal effective dose read?
Answer: Its minimal effective dose is 25 mg/kg.

Same assay, conditions: Mus musculus, po, read-out: MED (minimal effective dosis)

Question: Which minimal effective dose does the source give for NC(=O)CN1CCCC1=O [Piracetam, 2-Oxo-1-pyrrolidinylessigsäureamid, reference compound] here?
Answer: The minimal effective dose was 500 to 1000 mg/kg.

Same assay, conditions: Mus musculus; mice 20-25 g, oral; MED = minimal effective dosis reversing ECS-Amnesie; Table 1; read-out: Inhibitory avoidance MED mg/kg p.o. ECS-Amnesie

Question: With O=C(O)CCc1ccc(NC(=O)CCN2CCN(c3cccc(Cl)c3)CC2)cc1 [Beispiel 34, 3-{4-(3-(4-(3-Chlorphenyl)-piperazino)-propionamido]-phenyl}-propionsäure] as the molecule, how does the minimal effective dose read?
Answer: The minimal effective dose was 1.6 mg/kg.

Question: How did the minimal effective dose turn out when O=C(O)CCc1ccc(NC(=O)CCNCCCc2ccccc2)cc1 [Beispiel 48, 3-{4-[3-(3-Phenylpropylamino)-propionamido]-phenyl}-propionsäure] was run?
Answer: Its minimal effective dose is 50 mg/kg.

Question: For O=C(O)CCCc1ccc(NC(=O)CCN2CCC(c3ccccc3)CC2)cc1 [Beispiel 45, 4-{4-[3-(4-Phenylpiperidino)-propionamido]-phenyl}-buttersäure], which minimal effective dose is on record?
Answer: Its minimal effective dose is 25 mg/kg.

Question: For O=C(O)CCc1ccc(NC(=O)CCN2CCN(c3ccccc3)CC2)cc1 [Beispiel 46, 3-{4-[3-(4-Phenylpiperazino)-propionamido]-phenyl}-propionsäure], which minimal effective dose is on record?
Answer: Its minimal effective dose is 25 mg/kg.

Question: O=C(O)CCc1ccc(NC(=O)CCN2CCN(CCCc3ccccc3)CC2)cc1 [Beispiel 47, 3-{4-[3-(4-(3-Phenylpropyl)-piperazino)-propionamido]-phenyl}-propionsäure] was tested. Which minimal effective dose did it give?
Answer: The minimal effective dose was 25 mg/kg.

Question: Which minimal effective dose does the source give for O=C(O)C=Cc1ccc(NC(=O)CCN2CCN(c3cccc(Cl)c3)CC2)cc1 [Beispiel 35, 4-{3-[4-(3-Chlorphenyl)-piperazino]-propionamido}-zimtsäure] here?
Answer: The minimal effective dose was 50 mg/kg.
